Here are results for seven compounds from PubChem BioAssay (NCI).

Some test systems named below: NCI-H522 lung; T-47D breast; HL-60(TB) leukemia; HCC-2998 colon; M14 melanoma; SNB-19 CNS; OVCAR-3 ovarian; CCRF-CEM leukemia; SK-MEL-28 melanoma; HCT-116 colon.
What all share (experiment): NCI tumour cell line growth inhibition, 48 h

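Briefly, cells in 96-well plates were exposed to five compound concentrations for 48 h, and endpoints were estimated by linear interpolation. GI50 is the concentration that inhibits growth by half. TGI: total growth inhibition.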

Turning to `CCc1ccc(C(=Nc2ccc(N(C)C(=O)CN3CCN(C)CC3)cc2)c2c(O)[nH]c3ccc(C(=O)OC)cc23)cc1`, the GI50 in the experiment with NCI-H522 lung was 0.586 µM; in the experiment with T-47D breast, 0.87 µM; with HL-60(TB) leukemia, 0.328 µM; with HCC-2998 colon it was 0.587 µM; in the experiment on M14 melanoma, 0.368 µM; in the experiment on SNB-19 CNS, 0.775 µM. In addition, the GI50 in the experiment with OVCAR-3 ovarian is 0.538 µM; in the experiment on CCRF-CEM leukemia, 0.256 µM; with SK-MEL-28 melanoma it was 1.17 µM; in the experiment with HCT-116 colon, 0.0995 µM. The TGI in the experiment on NCI-H522 lung was 2.38 µM; in the experiment with T-47D breast, 2.68 µM; in the experiment with HL-60(TB) leukemia it was 1.01 µM; in the experiment on HCC-2998 colon, 1.95 µM; in the experiment on M14 melanoma, 1.69 µM; with SNB-19 CNS, 2.09 µM. Besides, the TGI with OVCAR-3 ovarian was determined as 1.96 µM; with CCRF-CEM leukemia, 1.16 µM; in the experiment with SK-MEL-28 melanoma, 2.42 µM; in the experiment on HCT-116 colon it was 1.12 µM.

As for `Oc1c(Cl)cc(Cl)cc1C(c1cc(Cl)cc(Cl)c1O)C(Cl)(Cl)Cl`, the GI50 in the experiment on NCI-H522 lung was 0.964 µM; with T-47D breast it was 2.39 µM; in the experiment with HL-60(TB) leukemia, 3.25 µM; with HCC-2998 colon, 1.91 µM; with M14 melanoma, 3.11 µM; with SNB-19 CNS it was 3.23 µM. The GI50 in the experiment with OVCAR-3 ovarian was 2.4 µM; in the experiment with CCRF-CEM leukemia it was 2.86 µM; with SK-MEL-28 melanoma, 4.18 µM; with HCT-116 colon, 1.32 µM. The TGI with NCI-H522 lung was 26.7 µM; with T-47D breast it was 11.3 µM; in the experiment on HL-60(TB) leukemia, 10.3 µM; in the experiment with HCC-2998 colon it was 5.08 µM; in the experiment with M14 melanoma it was 10.1 µM; with SNB-19 CNS, 15.8 µM. Further, the TGI in the experiment on OVCAR-3 ovarian was found to be 10.8 µM; with CCRF-CEM leukemia, 24.8 µM; in the experiment with SK-MEL-28 melanoma, 17.8 µM; with HCT-116 colon, 3.67 µM.

In the case of `CC([C@H]1CCC2C3CCC4C[C@@H](N)CC[C@]4(C)C3CC[C@@]21C)N(C)C` (some centres undefined), the GI50 with NCI-H522 lung is 7.25 µM; in the experiment on T-47D breast, 3.23 µM; in the experiment on HL-60(TB) leukemia, 5.55 µM; in the experiment on HCC-2998 colon, 12.8 µM; in the experiment with M14 melanoma, 1.79 µM; in the experiment with SNB-19 CNS, 15.8 µM. Moreover, the GI50 in the experiment with OVCAR-3 ovarian is 6.96 µM; in the experiment on CCRF-CEM leukemia, 6.69 µM; in the experiment on SK-MEL-28 melanoma, 1.91 µM; with HCT-116 colon, 1.9 µM. Also, the TGI in the experiment with NCI-H522 lung stood at 21.3 µM; in the experiment on T-47D breast, 17.9 µM; with HL-60(TB) leukemia, 13.2 µM; with HCC-2998 colon, 26.3 µM; in the experiment with M14 melanoma, 3.54 µM; in the experiment on SNB-19 CNS it was 32.7 µM. Also, the TGI with OVCAR-3 ovarian came to 21.2 µM; in the experiment with CCRF-CEM leukemia, 23.3 µM; in the experiment on SK-MEL-28 melanoma, 3.66 µM; in the experiment on HCT-116 colon, 5.02 µM.

Regarding `C=C1C(=O)O[C@H]2[C@H]1CC/C(COC(=O)C(C)c1ccc(CC(C)C)cc1)=C\CC[C@@]1(C)O[C@@H]21` (some centres undefined), the GI50 with NCI-H522 lung is 1.71 µM; in the experiment on T-47D breast it was 1.72 µM; with HL-60(TB) leukemia, 0.647 µM; in the experiment on HCC-2998 colon, 1.95 µM; with M14 melanoma, 0.688 µM; in the experiment on SNB-19 CNS, 1.49 µM. The GI50 in the experiment with OVCAR-3 ovarian is 1.5 µM; in the experiment with CCRF-CEM leukemia, 0.228 µM; in the experiment on SK-MEL-28 melanoma it was 1.63 µM; in the experiment on HCT-116 colon, 0.187 µM. In addition, the TGI with NCI-H522 lung was 3.4 µM; with T-47D breast, 4.43 µM; in the experiment on HL-60(TB) leukemia, 2.68 µM; with HCC-2998 colon it was 3.74 µM; in the experiment on M14 melanoma, 2.13 µM; in the experiment on SNB-19 CNS, 2.87 µM. Besides, the TGI with OVCAR-3 ovarian was found to be 2.87 µM; with CCRF-CEM leukemia, 1.03 µM; in the experiment on SK-MEL-28 melanoma, 3 µM; in the experiment with HCT-116 colon, 0.376 µM.

As for `CN(C)CCNc1c2ccccc2nc2oc3ccccc3c12`, the GI50 in the experiment with NCI-H522 lung is 4.6 µM; in the experiment with T-47D breast it was 4.72 µM; with HL-60(TB) leukemia, 3.53 µM; with HCC-2998 colon it was 8.49 µM; in the experiment with M14 melanoma, 11.3 µM; with SNB-19 CNS, 6.88 µM. In addition, the GI50 with OVCAR-3 ovarian was 8.71 µM; in the experiment on SK-MEL-28 melanoma, 11.8 µM; in the experiment with HCT-116 colon, 4.16 µM. Besides, the TGI in the experiment on NCI-H522 lung amounted to 18.3 µM; in the experiment with T-47D breast, 26.7 µM; with HL-60(TB) leukemia, 25.2 µM; in the experiment with HCC-2998 colon, 22.3 µM; with M14 melanoma, 32.5 µM; in the experiment on SNB-19 CNS, 34.8 µM. Besides, the TGI was determined as 51 µM in the experiment with OVCAR-3 ovarian, 0.0412 µM with CCRF-CEM leukemia, 25.3 µM with SK-MEL-28 melanoma and 23.7 µM in the experiment on HCT-116 colon.

Take `Clc1ccccc1CNc1c2ccccc2nc2ccccc12`: the GI50 is 5.05 µM in the experiment with NCI-H522 lung; 2.3 µM in the experiment on T-47D breast; 2.05 µM with HL-60(TB) leukemia; 1.5 µM in the experiment on HCC-2998 colon; 2.04 µM in the experiment on M14 melanoma; 2.28 µM with SNB-19 CNS. The GI50 with OVCAR-3 ovarian was 3.39 µM; in the experiment with CCRF-CEM leukemia, 2.74 µM; with SK-MEL-28 melanoma, 2.75 µM; with HCT-116 colon, 1.65 µM. Also, the TGI in the experiment with NCI-H522 lung stood at 21.3 µM; with T-47D breast, 13 µM; with HL-60(TB) leukemia, 9.71 µM; in the experiment with HCC-2998 colon, 5.57 µM; in the experiment with M14 melanoma, 9.98 µM; in the experiment on SNB-19 CNS it was 8.96 µM. For the same compound, the TGI turned out to be 10.5 µM with OVCAR-3 ovarian, 50 µM in the experiment on CCRF-CEM leukemia, 9.21 µM in the experiment on SK-MEL-28 melanoma and 8.1 µM in the experiment on HCT-116 colon.

On to `O=[N+]([O-])c1cc(C(F)(F)F)ccc1Sc1ccc(C(F)(F)F)cc1[N+](=O)[O-]`, for which the GI50 with NCI-H522 lung was 7.14 µM; with T-47D breast, 29.2 µM; in the experiment with HL-60(TB) leukemia, 3.32 µM; in the experiment on HCC-2998 colon it was 19.7 µM; with M14 melanoma, 7.23 µM; with SNB-19 CNS, 70.2 µM. For the same compound, the GI50 in the experiment with OVCAR-3 ovarian is 5.11 µM; with CCRF-CEM leukemia, 3.47 µM; in the experiment with SK-MEL-28 melanoma, 13.2 µM; with HCT-116 colon, 3.68 µM. In addition, the TGI was 82.4 µM in the experiment with NCI-H522 lung; > 100 µM with T-47D breast; > 100 µM in the experiment on HL-60(TB) leukemia; > 100 µM with HCC-2998 colon; > 100 µM with M14 melanoma; > 100 µM in the experiment on SNB-19 CNS. Moreover, the TGI is 54.9 µM with OVCAR-3 ovarian, > 100 µM in the experiment on CCRF-CEM leukemia, > 100 µM in the experiment with SK-MEL-28 melanoma and > 100 µM in the experiment with HCT-116 colon.
